In PMC8709388, “In Search of Small Molecules That Selectively Inhibit MBOAT4” (Molecules, 2021):
Where a SMILES comes first, the peptide text is derived from it. Where no end group is shown, it is not given here. [ ]: non-standard residue; d: D form. The star is where a group is joined. Tle = CC(C)(C)[C@H](N)C(=O)O; Octanoyl = CCCCCCCC(=O)*; Dap = NC[C@H](N)C(=O)O; Sar = CNCC(=O)O

Tests used:
GOAT = conditions: cited from earlier work
mouse GOAT = target: T1, mouse GOAT (Mus musculus, UniProt P0C7A3); assay: Acyltransferase assay: inhibition of proghrelin octanoylation by GOAT in sf9 membrane fractions; type: biochemical; conditions: for IC50: read-out: IC50 (GOAT, membrane fraction, in-house); for GOAT inhibition in vitro (in words): membrane fractions
T1 construct: made in house; host or cells: sf9 insect cells (baculovirus, pFastBac1-mouseGOAT); total membrane fraction, not purified
T1 sequence (P0C7A3 1-435): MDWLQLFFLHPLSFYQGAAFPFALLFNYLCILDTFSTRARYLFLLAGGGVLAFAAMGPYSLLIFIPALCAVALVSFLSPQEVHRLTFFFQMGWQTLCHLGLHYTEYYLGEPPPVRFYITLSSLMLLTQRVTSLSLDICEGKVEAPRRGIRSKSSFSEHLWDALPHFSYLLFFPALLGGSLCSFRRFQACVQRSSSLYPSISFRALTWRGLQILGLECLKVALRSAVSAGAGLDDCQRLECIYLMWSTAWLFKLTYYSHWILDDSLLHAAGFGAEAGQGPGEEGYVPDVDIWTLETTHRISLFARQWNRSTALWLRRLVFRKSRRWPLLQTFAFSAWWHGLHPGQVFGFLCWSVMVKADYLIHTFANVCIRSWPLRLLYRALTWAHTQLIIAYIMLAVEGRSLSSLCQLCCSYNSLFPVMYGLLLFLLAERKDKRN
Protocol: pFastBac1-mouseGOAT and pGEX-GST-proGhrelin8His plasmid encoding for mouse proghrelin, fused to GST with TEV cleavage site to release proghrelin moiety, was a kind gift from the Brown and Goldstein laboratory. The BL21Gold E. coli chemically competent cells were transformed with the pGEX-GST-proGhrelin8His plasmid and selected on agar plates with ampicillin. A few colonies were used to inoculate 50 mL LB, and cultures were grown overnight at 37 °C. The next morning, 10 mL of overnight culture was used to inoculate 1L LB. A total of 4 flasks with 1L LB each were inoculated with 10 mL of the overnight culture, and bacterial cultures were grown at 37 °C until they reached OD600 ~ 0.6. The cultures were chilled on ice for 30 min and then 0.25 mM of IPTG was added to each culture. The cultures were then moved back to a shaker set to 18 °C and incubated overnight. Cells were harvested and resuspended in 200 mL buffer containing 25 mM Tris-HCl pH 8.0, 150 mM NaCl, 1 mM EDTA and 0.5 mg/mL lysozyme. The cell suspension was sonicated, and cell debris was removed by centrifugation. The soluble fraction was passed through glutathione resin by gravity. The resin was washed with 75 mL of lysis buffer without lysozyme. The GST-proGhrelin8His protein was eluted with lysis buffer without lysozyme, supplemented with 15 mM reduced glutathione, GSH. About 50 mg of target protein, as evaluated by SDS-PAGE, was eluted. The eluate was supplemented with 1 mM DTT and about 7.5 mg of recombinant GST-TEV protease (see below) was added. The solution was incubated at 16 °C overnight to allow complete release of proghrelin8His from GST. Prior to Ni-NTA chromatography, 5 mM CaCl2 was added, and the solution was spun down at 4000× g for 10 min. After elution from Ni-NTA resin, protein solution was dialyzed against buffer containing 10 mM Tris-HCl pH 8.5, 50 mM NaCl, 10% glycerol and 0.01% CHAPS using 3 kDa cutoff membrane with 3 buffer exchanges. The protein was quantified by absorbance at A280 and qualified by SDS-PAGE.
The baculovirus expression of mouse GOAT. DH10Bac E. coli strain (ThermoFisher, Waltham, MA, USA) was transformed with pFastBac1-mouseGOAT plasmid, and Bacmid DNA from 12 white colonies was analyzed by DNA sequencing and PCR reaction. All clones were transfected to sf9 cells and level of mGOAT expression was compared between clones from cells producing P2. The clone with the highest mGOAT expression level was used to produce P3. For membrane isolation, sf9 cells were seeded at 2–4 × 10^6 /mL in total 1 L volume of sf-900 serum-free medium (ThermoFisher) and infected with P3 virus. At day 2 post-infection, cells were harvested and resuspended in 40 mL of buffer containing 50 mM NaPi pH 7.2, 150 mM NaCl, 1 mM EDTA, 100 μM bis (4-nitrophenyl) phosphate, 2.5 μg/mL aprotinin, 10 μg/mL leupeptin, 10 μg/mL pepstatin A. Cell suspension was briefly sonicated and cell debris was removed by centrifugation at 3000× g for 10 min. Membrane fraction was collected from supernatant by centrifugation at 100,000× g for 1 h. Membrane pellet was resuspended in storage buffer (50 mM NaPi pH 7.2, 150 mM NaCl and 10% glycerol) and kept at −80 °C. Acyltransferase assay: The assay conditions included per 50 μL reaction: 50 μg of total sf9 membranes, various (for modality experiment) or fixed (for IC50) concentrations of recombinant proghrelin8His peptide and various concentrations of tested compound (for IC50), 100 μM palmitoyl CoA, 50 mM HEPES pH 7.0 and 1 μM [^3H] octanoyl CoA (~5.5 dpm/fmol—American Radioactive Chemicals). After incubation of the reaction mixture at 37C for 10 min, tubes were placed on ice and 10 μL of 1M HCl was added to each tube. Following the addition of 740 μL of cold quench buffer (50 mM NaPi pH 7.4, 10 mM Imidazole, 150 mM NaCl, 100 μM bis (4-nitrophenyl) phosphate, 1 mM phenylmethylsulfonyl fluoride and 0.1% Triton), 0.2 mL of 50% Ni-NTA slurry was added to each reaction. […]

Pharmacokinetics in mice = type: in vivo
[1] = sf9 membranes containing mouse GOAT, [3H]octanoyl CoA, proghrelin8His

Compound	IC50 (mouse GOAT; [1]) [µM]	GOAT inhibition in vitro (in words) (mouse GOAT)	other results
1: GOAT reaction product, acyl ghrelin, 28-residue lipopeptide octanoylated at Ser3 (GSS(Octanoyl)FLSPEHQRVQQRKESKKPPAKLQPR; UniProt Q9UBU3 24-51, looked up) [compound 1]	–	–	GOAT inhibition (in words) (GOAT): weakly inhibited
O=C(O)c1ccc2oc(SCc3ccc(Cl)cc3Cl)nc2c1 [compound 7]	–	–	mode of GOAT inhibition (GOAT): competed at the CoA site on GOAT
CCCCCCCC(=O)NC[C@H](NC(=O)[C@@H](NC(=O)CNC)C(C)(C)C)C(=O)N[C@@H](Cc1ccccc1)C(N)=O [compound 8] (H-[Sar][Tle][Dap](Octanoyl)F-NH2)	0.014	–	–
CCCCCCCC(=O)NC[C@H](NC(=O)[C@@H](NC(=O)CNC)C(C)(C)C)C(N)=O [compound 12] (H-[Sar]-[Tle]-[Dap](Octanoyl)-NH2)	> 1	inactive	–
CCCCCCCC(=O)NC[C@H](NC(=O)[C@@H](NC(=O)CNC)C(C)(C)C)C(=O)N[C@@H](Cc1ccccc1)C(=O)N[C@@H](CC(C)C)C(N)=O [compound 13] (H-[Sar][Tle][Dap](Octanoyl)FL-NH2)	0.05	–	oral bioavailability (Pharmacokinetics in mice): low; pharmacokinetics (Pharmacokinetics in mice): poor
CCCCCCCC(=O)NC[C@H](NC(=O)[C@@H](NC(=O)CNC)C(C)(C)C)C(=O)N[C@@H](Cc1ccccc1)C(=O)N[C@@H](CC(C)C)C(=O)N[C@@H](CO)C(N)=O [compound 14] (H-[Sar][Tle][Dap](Octanoyl)FLS-NH2)	0.062	–	–
CCCCCCCC(=O)NC[C@H](NC(=O)[C@@H](NC(=O)CNC)C(C)(C)C)C(=O)N[C@@H](Cc1ccccc1)C(=O)N[C@@H](CC(C)C)C(=O)N[C@@H](CO)C(=O)N1CCC[C@H]1C(N)=O [compound 15] (H-[Sar][Tle][Dap](Octanoyl)FLSP-NH2)	0.096	–	–
CCCCOCC(=O)N1CCC(/C=C\c2c(C)nc3nonc3c2N)CC1 [compound 25, (Z)-1-(4-(2-(7-amino-5-methyl-[1,2,5]oxadiazolo[3,4-b]pyridin-6-yl)vinyl)piperidin-1-yl)-2-butoxyethan-1-one]	0.44	significantly impaired	–
C[C@H](NC(=O)c1ccnn1C)C(=O)N1CCC(CCCc2cc(N)c3nonc3n2)CC1 [compound 35, (S)-N-(1-(4-(3-(7-amino-[1,2,5]oxadiazolo[3,4-b]pyridin-5-yl)propyl)pip-eridin-1-yl)-1-oxopropan-2-yl)-1-methyl-1H-pyrazole-5-carboxamide]	–	significantly impaired	IC50 (GOAT, membrane fraction, in-house) (mouse GOAT; [1]): inactive
N-(((3S,6S,9S)-9-(2-aminoacetamido)-3-benzyl-10,10-dimethyl-5,8-dioxo-1,11-dioxa-4,7-diazacyclopentadec-13-en-6-yl)methyl)octanamide [17a]	–	–	mode of GOAT inhibition (mouse GOAT; reaction rates at varied substrate concentrations, fixed inhibitor concentration): competing for the peptide substrate
